From patent US12384749B2, “Onium salt of nitrogen-containing heteroaryl compound and pest control agent” (Nippon Soda Co., Ltd., priority 2019, dated 2025) come the findings set out here.

Type in all cases: in vivo
The subject of one data set is Mythimna separata. The experiment in a line: Efficacy test against Mythimna separata (treated artificial feed). The conditions noted are these: 1 μl of emulsion (I) (5% by mass active ingredient) mixed with 0.8 g artificial feed; second-instar larvae; 25° C.; after five days. An excerpt: (§1) 5 parts by mass of a compound of the present invention, 93.6 parts by mass of dimethylformamide, and 1.4 parts by mass of polyoxyethylene alkyl aryl ether were mixed and dissolved to obtain an emulsion (1) containing 5% by mass of the active ingredient.
(§2) 93.6 parts by mass of dimethylformamide, and 1.4 parts by mass of polyoxyethylene alkyl aryl ether were mixed and dissolved to obtain an emulsion (II).
0.8 g of commercially-available artificial feed (Insect LFS, manufactured by Nosan Corporation) and 1 μl of the emulsion (I) were mixed well, and then 0.2 g of the mixture per treated area was packed into plastic test containers (each having a capacity of 1.4 ml) as test feeds.
Two second-instar larvae of Mythimna separata were left per treated area, and then the test containers were sealed with plastic covers. The test containers were placed in a thermostatic chamber at 25° C., and, after five days had passed therefrom, the mortality and the feed intake were measured. The test was repeated twice.
(§3) In addition, the test was conducted under the same conditions as described above, except that the emulsion (II) was used instead of the emulsion (I), and evaluated as a solvent control area.
The compounds A-2, A-3, A-4, A-9, A-10, A-11, A-15, and A-16 were subjected to an efficacy test against Mythimna separata. […] The mortality was calculated in accordance with the following equation. Mortality (%)=(Died insect number/Tested insect number)×100

In a further data set the test system is Spodoptera litura. The experiment in a line: Efficacy test against Spodoptera litura (cabbage leaf dip). The conditions noted are these: foliar, 144 h, 125 ppm by mass, cabbage leaf immersed 30 seconds, second-instar larvae, 25° C., humidity 60%, after six days. The method, then:
as §1
The emulsion (I) was diluted with water such that the amount of the compound of the present invention became 125 ppm by mass. A cabbage leaf was immersed in the diluted solution for 30 seconds. The cabbage leaf was air-dried and then put in a petri dish, followed by leaving five second-instar larvae of Spodoptera litura therein. The petri dish was placed in a thermostatic chamber at a temperature of 25° C. and a humidity of 60%. After six days had passed from leaving the larvae, life or death was assessed and the mortality was calculated. The test was repeated twice.

A further data set has as its system Helicoverpa armigera. The experiment in a line: Efficacy test against Helicoverpa armigera (cabbage leaf dip). The conditions noted are these: foliar, 144 h, 125 ppm by mass, cabbage leaf immersed 30 seconds, second-instar larvae, 25° C., humidity 60%, after six days.
Another data set deals with Nilaparvata lugens. The experiment in a line: Efficacy test against Nilaparvata lugens (rice seedling dip). To be noted: 240 h, 125 ppm by mass, rice seedling immersed 30 seconds, second-instar larvae, 25° C., humidity 65%, after ten days. The method, then: as §1
The emulsion (I) was diluted with water such that the amount of the compound of the present invention became 125 ppm by mass. A rice seedling was immersed in the diluted solution for 30 seconds, air-dried, and then placed in a plastic case, followed by leaving five second-instar larvae of Nilaparvata lugens therein. The plastic case was placed in a thermostatic chamber at a temperature of 25° C. and a humidity of 65%. After ten days had passed therefrom, life or death was assessed and the mortality was calculated. The test was repeated twice.

The test system of the next data set is Tetranychus urticae. The experiment in a line: Efficacy test against Tetranychus urticae (spray on kidney bean). The conditions noted are these: 125 ppm by mass sprayed on kidney bean; female adults removed after three days; living number counted ten days after spraying; 25° C., humidity 65%.
Description: as §1, §2
Five female adults of Tetranychus urticae were left on primary leaves of kidney bean planted in a 3-sun pot. The emulsion (I) was diluted with water such that the amount of the compound of the present invention became 125 ppm by mass. The diluted solution was sprayed on the kidney bean and evaluated as a treated area. The 3-sun pot was placed in a thermostatic chamber at a temperature of 25° C. and a humidity of 65%, and after three days had passed from spraying, the female adults of Tetranychus urticae were removed to leave only laid eggs remaining on the leaves. After ten days had passed from spraying, the number of living Tetranychus urticae was counted. The test was repeated twice.
as §3
The control ratio was calculated in accordance with the following equation. Control ratio (%)=100×[1−Nt/Nc] […]

The next data set deals with Aphis gossypii. The experiment in a line: Efficacy test against Aphis gossypii (spray on cucumber). The conditions noted are these: 120 h, 125 ppm by mass sprayed on cucumber, first-instar larvae, 25° C., humidity 60%, after five days.
Description: as §1
Cucumber was sown in a 3-sun pot. After ten days had passed from germination, a female adult of Aphis gossypii was left on the cucumber. On the next day, laid first-instar larvae were left, and the female adult was removed. The emulsion (I) was diluted with water such that the amount of the compound of the present invention became 125 ppm by mass. The diluted solution was sprayed on the cucumber. Then, the cucumber was placed in a thermostatic chamber at a temperature of 25° C. and a humidity of 60%. After five days had passed therefrom, life or death of Aphis gossypii was assessed and the mortality was calculated.

With `O=C([N-][n+]1ccccn1)c1ccc(-c2ccc(OC(F)(F)C(F)F)cc2)nc1` [Compound A-2], the “mortality or feed intake relative to the feed intake at the solvent control area” value in the data set with Mythimna separata was 100% mortality of Mythimna separata or 10% or less of the feed intake.
For the compound `O=C([N-][n+]1ccccn1)c1ccc(-c2ccc(OCC(F)(F)F)nc2)nc1` [Compound A-3], the “mortality or feed intake relative to the feed intake at the solvent control area” value with Mythimna separata is listed as 100% mortality of Mythimna separata or 10% or less of the feed intake.
With `O=C([N-][n+]1cnn(CC(F)(F)F)c1)c1ccc(-c2ccc(OC(F)(F)C(F)F)cc2)c(Cl)c1` [Compound A-4], in the data set with Spodoptera litura, the mortality at 125 ppm is no less than 80%. Further, the “mortality or feed intake relative to the feed intake at the solvent control area” value in the data set on Mythimna separata was 100% mortality of Mythimna separata or 10% or less of the feed intake.
With `Cn1cc[n+]([N-]C(=O)c2ccc(-c3ccc(OC(F)(F)C(F)F)cc3)cc2)c1` [Compound A-9], the mortality at 125 ppm was no less than 90% in the data set on Helicoverpa armigera and no less than 80% with Spodoptera litura. Also, in the data set on Mythimna separata, the “mortality or feed intake relative to the feed intake at the solvent control area” value is 100% mortality of Mythimna separata or 10% or less of the feed intake.
For `O=C([N-][n+]1ccsc1)c1ccc(-c2ccc(OC(F)(F)C(F)F)cc2)cc1` [Compound A-10], the “mortality or feed intake relative to the feed intake at the solvent control area” value in the data set on Mythimna separata is on record as 100% mortality of Mythimna separata or 10% or less of the feed intake.
Regarding `O=C([N-][n+]1ccccn1)c1ccc(-c2ccc(OC(F)(F)C(F)F)cc2)cc1` [Compound A-11], the mortality at 125 ppm in the data set on Nilaparvata lugens and with Spodoptera litura was no less than 80% in each case. The “mortality or feed intake relative to the feed intake at the solvent control area” value in the data set with Mythimna separata is 100% mortality of Mythimna separata or 10% or less of the feed intake.
As to `Cn1cc[n+]([N-]C(=O)c2ccc(-c3ccc(OC(F)(F)F)cc3)cc2)c1` [Compound A-13], the mortality at 125 ppm with Spodoptera litura is no less than 80%.
For the compound `O=C([N-][n+]1ccncc1)c1ccc(-c2ccc(OC(F)(F)F)cc2)cc1` [Compound A-15], the “mortality or feed intake relative to the feed intake at the solvent control area” value with Mythimna separata is 100% mortality of Mythimna separata or 10% or less of the feed intake.
`O=C([N-][n+]1ccccn1)c1ccc(-c2ccc(OC(F)(F)F)cc2)cc1` [Compound A-16]: the “mortality or feed intake relative to the feed intake at the solvent control area” value with Mythimna separata was 100% mortality of Mythimna separata or 10% or less of the feed intake.
With `O=C([N-][n+]1ccccn1)c1ccc(C(F)(F)F)cc1` [Compound A-18], the control ratio with Tetranychus urticae was no less than 90%.
Consider `O=C([N-][n+]1ccncc1)c1ccc(C(F)(F)F)cc1` [Compound A-19], for which the mortality at 125 ppm in the data set with Aphis gossypii is no less than 80%.

In general, mortality refers to the percentage killed.
